{
  "source": "patent US20220151955A1",
  "about": "“KETAMINE FOR THE TREATMENT OF […] AND DISORDERS” (The Ketamine Research Foundation, priority 2019, published 2022)",
  "key": {"[1]": {"conditions": "cited from earlier work"}, "[2]": {"tested_on": "women with postpartum depression", "conditions": "cited from earlier work"}, "[3]": {"experiment": "Ketamine levels in the breast milk of lactating women after intramuscular ketamine hydrochloride", "assay_type": "in vivo", "conditions": "0.5 and 1.0 mg/kg intramuscular", "description": "A study of the pharmacodynamics of ketamine in the breast milk of lactating women was performed. Ketamine levels in breast milk were quantified in lactating subjects over time. Four women were given intramuscular injections of ketamine hydrochloride at two doses: 0.5 mg/kg and 1.0 mg/kg at intervals of at least one week apart. Breast milk was collected in one subject at 3 hour intervals through 24 hours, and the succeeding three subjects at 3 hour intervals up to 12 hours. Subjects were of different weights and ethnic backgrounds.\nAdministered dosages of ketamine ranged from 28 mg to 76 mg. […] For subjects receiving the 0.5 mg/kg dose, the observed range for ketamine in the breast milk of the subject at the 9 to 12 hour collection period (total expression of milk during the period) ranged from 0.09 mg to 1.66 mg. For subjects receiving the 1.0 mg/kg dose, the observed range for ketamine in the breast milk of the subject at the 9 to 12 hour collection period (total expression of milk during the period) ranged from 1.067 mg to 6.22 mg. The highest ketamine level (6.22 mg) was observed following administration of a 76 mg dose of ketamine hydrochloride."}, "[4]": {"conditions": "in vivo; cited from earlier work"}},
  "data": [
    {"smiles": "CN[C@]1(c2ccccc2Cl)CCCCC1=O", "note": "[S-(+)-ketamine]", "values": [
      {"measurement": "potency relative to R-(−)-ketamine", "setting": "[1]; for use in anesthesia", "value": "twice as potent as R-(−)-ketamine"}
    ]},
    {"smiles": "CC(=O)[C@H]1CC[C@H]2[C@@H]3CC[C@H]4C[C@H](O)CC[C@]4(C)[C@H]3CC[C@]12C", "note": "[brexanolone]", "values": [
      {"measurement": "women no longer clinically depressed", "setting": "[2]; within 60 hours, intravenous over 60 hours, two clinical trials of about 250 women, placebo 25 percent", "value": 50, "unit": "%"},
      {"measurement": "adverse effects experienced by some women", "setting": "[2]; women who received brexanolone", "value": "excessive sedation and sudden loss of consciousness"}
    ]},
    {"smiles": "CNC1(c2ccccc2Cl)CCCCC1=O", "note": "(centres unmarked) [ketamine]", "values": [
      {"measurement": "levels detectable in breast milk at 12 hours", "setting": "[3]", "value": "only minimal levels"},
      {"measurement": "half-life", "setting": "[4]", "value": "less than two and a half hours"}
    ]},
    {"smiles": "NC1(c2ccccc2Cl)CCCCC1=O", "note": "(centres unmarked) [norketamine]", "values": [
      {"measurement": "levels detectable in breast milk at 12 hours", "setting": "[3]", "value": "only minimal levels"},
      {"measurement": "potency relative to ketamine (estimated)", "setting": "[1]; active metabolite, as stated in Example 1", "value": "one-third the potency of ketamine"},
      {"measurement": "potency relative to ketamine", "setting": "[1]; for use in anesthesia", "value": "one third the potency of ketamine"}
    ]}
  ]
}
